According to patent publication US20210369710A1, “MODULATORS OF MYC FAMILY PROTO-ONCOGENE PROTEIN” (Nalo Therapeutics, priority 2019, published 2021):

How the values were obtained:
MycN Protein = target: T1, MycN Protein (Homo sapiens, UniProt P04198); test: Degradation of MycN protein, Western blot band density in cells; assay type: cell-based; conditions: HL-60 or SKNBE2 cells; 6 uL of compound (1 mM) added to 3 mL cells; 6 hours; Western blot band density (ImageJ)
T1 construct: endogenous in cells; host or cells: HL-60 or SKNBE2
T1 sequence (P04198 1-464): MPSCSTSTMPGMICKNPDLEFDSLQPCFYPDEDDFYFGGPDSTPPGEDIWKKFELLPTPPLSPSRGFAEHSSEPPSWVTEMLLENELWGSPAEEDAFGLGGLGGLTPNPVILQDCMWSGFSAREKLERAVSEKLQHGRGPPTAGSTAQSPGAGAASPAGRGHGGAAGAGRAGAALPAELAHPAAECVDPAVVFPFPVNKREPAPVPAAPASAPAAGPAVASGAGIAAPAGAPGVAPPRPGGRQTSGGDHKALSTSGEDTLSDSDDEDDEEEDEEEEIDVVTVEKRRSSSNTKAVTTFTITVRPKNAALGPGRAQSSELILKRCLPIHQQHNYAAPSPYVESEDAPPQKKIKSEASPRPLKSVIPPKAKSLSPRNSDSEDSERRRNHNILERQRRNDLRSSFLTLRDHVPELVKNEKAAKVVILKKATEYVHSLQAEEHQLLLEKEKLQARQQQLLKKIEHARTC
Experimental: (§1) In a T150 flask was plated either 2×10^6 of HL-60 (human leukemia cell line) or SKNBE2 (neuroblastoma cell line) cells in a total of 30 mL containing Roswell Park Memorial Institute (RPMI) 1640 Medium (Thermo Fisher, Cat. #11875-085), 10% Fetal Bovine Serum (FBS, Thermo Fisher: Cat. #10437-028), 1% Penicillin/streptomycin (Thermo Fisher: Cat. #10378016), and 1% Amophotericin B (Thermo Fisher, Cat. #15290026). The cells were split every 72 hours by reseeding the HL-60 or SKNBE2 cells, and the passage number was noted. It is noteworthy that cell cultures that were above 40 passages were not used, and most experiments were done with cells of less than 30 passages.
(§2) In a 6-well cell culture plate, a total of 3 mL of either 1×10^6 cells/mL of HL-60 or SKNBE2 cells were seeded, resulting in a total of 3×10^6 cells per well. To each well containing 3 mL of either HL-60 or SKNBE2 cell line was added 6 uL of MycN modulating compound (1 mM) and the resulting plate was shaken from left to right, and not swirled. After 6 hours, the cells were placed in a 15 mL falcon tube and spun at 500 Gs at 4° C. in a swinging bucket centrifuge. The medium was then carefully removed without disturbing the pellet. The pellet was then washed with 3 mLs of chilled phosphate buffered saline (PBS) and subjected to the spin cycle. PBS was then removed and the pellet was lysed in 200 uL of radioimmunoprecipitation (RIPA) lysis buffer (Thermo Fisher: Cat. #899000) that is supplemented with protease and phosphatase inhibitors (Thermo Fisher: Cat. #A32959). The cell lysate was then subjected to spinning in a centrifuge for 10 minutes at 13000G at 4° C. The supernatant was then carefully transferred to a fresh eppendorf tube without disturbing the pellet (˜180 uL). The protein concentration of the cell lysate was then determined by using a bicinchoninic acid (BCA assay) according to manufacturer's protocol (Thermo Fisher: Cat. #23227).
(§3) Cell lysate, approximately 25 ug-30 ug, was loaded per well in a 4-20% polyacrylamide gel (Biorad. Cat. #5671094). After running the dye front off of the gel, the gel was transferred to a nitrocellulose membrane (Biorad: Cat. #1704159) using the transblot turbo system (Biorad: Cat. #1704150) according to manufacturer's protocol. After transferring for 30 minutes, the membrane was blocked with 5% BSA for 1 hour at room temperature. The BSA was then washed off and the primary antibody of choice (1:500) was added, and the membrane was incubated with the primary antibody at 4° C. for overnight. The next morning, the primary antibody was removed and the membrane was washed with 1×-TBST for 10 minutes and repeated three more times. Following the last wash, a secondary antibody (Molecular Devices. Cat. #R8209 or R8208) was added at 1:5000 dilution and incubated for 1 hour at room temperature. Following the incubation with the secondary antibody, the membrane was washed with 1×-TBST for 10 minutes and repeated three more times. Following the last wash, the membrane was washed with de-ionized water twice and dried for at least two hours. Once the membrane is completely dry, the Molecular Devices Spectra Max western system was used to observe the bands. The western image was saved and the band density was measured with ImageJ software.

MycC Protein = target: T2, MycC Protein (Homo sapiens, UniProt P01106); test: Degradation of MycC protein, Western blot band density in cells; assay type: cell-based; conditions: HL-60 or SKNBE2 cells; 6 uL of compound (1 mM) added to 3 mL cells; 6 hours; Western blot band density (ImageJ)
T2 construct: endogenous in cells; host or cells: HL-60 or SKNBE2
T2 sequence (P01106 whole entry): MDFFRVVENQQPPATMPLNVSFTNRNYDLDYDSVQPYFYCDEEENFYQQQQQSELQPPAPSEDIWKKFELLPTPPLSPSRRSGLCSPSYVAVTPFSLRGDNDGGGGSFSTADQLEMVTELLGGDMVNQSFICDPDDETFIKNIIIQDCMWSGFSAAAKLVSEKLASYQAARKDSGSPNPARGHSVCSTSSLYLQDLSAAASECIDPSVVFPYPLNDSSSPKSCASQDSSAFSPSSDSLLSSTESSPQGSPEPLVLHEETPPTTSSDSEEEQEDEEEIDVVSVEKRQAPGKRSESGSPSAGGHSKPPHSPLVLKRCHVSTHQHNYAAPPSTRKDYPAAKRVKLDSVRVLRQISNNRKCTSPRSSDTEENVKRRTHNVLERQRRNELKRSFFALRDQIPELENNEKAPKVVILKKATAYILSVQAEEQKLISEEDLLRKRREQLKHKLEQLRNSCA
Experimental: as §1, §2, §3

| SMILES | Dmax at 2 µM (MycN Protein) | Dmax at 2 µM (MycC Protein) | % Degradation of MycN (MycN Protein) | % Degradation of MycC (MycC Protein) |
| --- | --- | --- | --- | --- |
| O=C(NC1CCC2(CC1)COC2)N[C@H]1CC[C@H](Nc2nccc(Nc3cc(C4CCCC4)[nH]n3)n2)CC1 [Compound 49, 1-((1R,4R)-4-((4-((5-cyclopentyl-1H-pyrazol-3-yl)amino)pyrimidin-2-yl)amino)cyclohexyl)-3-(2-oxaspiro[3.5]nonan-7-yl)urea] | < 20% | < 20% | – | – |
| O=C(N[C@H]1CC[C@H](Nc2nccc(Nc3cc(C4CCCC4)[nH]n3)n2)CC1)N[C@H]1C[C@H](c2ccccc2)C1 [Compound 52, 1-((1R,4R)-4-((4-((5-cyclopentyl-1H-pyrazol-3-yl)amino)pyrimidin-2-yl)amino)cyclohexyl)-3-(3-phenylcyclobutyl)urea] | 80 to 100% | 80 to 100% | – | – |
| N#Cc1cccc([C@H]2C[C@H](NC(=O)N[C@H]3CC[C@H](Nc4nccc(Nc5cc(C6CCOC6)[nH]n5)n4)CC3)C2)c1 (some centres unmarked) [Compound 53] | < 20% | < 20% | – | – |
| CS(=O)(=O)N1CC(NC(=O)N[C@H]2CC[C@H](Nc3nccc(Nc4cc(C5CCCC5)[nH]n4)n3)CC2)C1 [Compound 56] | < 20% | 20 to 49% | – | – |
| CS(=O)(=O)[C@H]1C[C@H](NC(=O)N[C@H]2CC[C@H](Nc3nccc(Nc4cc(C5CCCC5)[nH]n4)n3)CC2)C1 [Compound 57] | < 20% | 50 to 79% | – | – |
| O=C(NC1CCC(Nc2nccc(Nc3cc(C4CCCC4)[nH]n3)n2)CC1)NC1CCCN(C2CC2)C1 [Compound 60, 1-((1R,4R)-4-((4-((5-cyclopentyl-1H-pyrazol-3-yl)amino)pyrimidin-2-yl)amino)cyclohexyl)-3-(1-cyclopropylpiperidine-3-yl)urea] | < 20% | 50 to 79% | – | – |
| O=C(NC1CCC(Nc2nccc(Nc3cc(C4CCCC4)[nH]n3)n2)CC1)NC1CCN(C2CC2)CC1 (centres unmarked) [Compound 63] | 50 to 79% | 20 to 49% | – | – |
| O=C(NC1CCN(CCO)CC1)N[C@H]1CC[C@H](Nc2nccc(Nc3cc(C4CCCC4)[nH]n3)n2)CC1 [Compound 70, 1-((1R,4R)-4-((4-((5-cyclopentyl-1H-pyrazol-3-yl)amino)pyrimidin-2-yl)amino)cyclohexyl)-3-(1-(2-hydroxyethyl)piperidin-4-yl)urea] | < 20% | 20 to 49% | – | – |
| O=C(NC1CCN(Cc2ccccn2)CC1)N[C@H]1CC[C@H](Nc2nccc(Nc3cc(C4CCCC4)[nH]n3)n2)CC1 [Compound 72, 1-((1R,4R)-4-((4-((5-cyclopentyl-1H-pyrazol-3-yl)amino)pyrimidin-2-yl)amino)cyclohexyl)-3-(1-(pyridin-2-ylmethyl)piperidin-4-yl)urea] | < 20% | 20 to 49% | – | – |
| Cc1cc(Nc2ccnc(N[C@H]3CC[C@H](NC(=O)NC4CCN(Cc5ccccn5)CC4)CC3)n2)n[nH]1 [Compound 73, 1-((1R,4R)-4-((4-((5-methyl-1H-pyrazol-3-yl)amino)pyrimidin-2-yl)amino)cyclohexyl)-3-(1-(pyridin-2-ylmethyl)piperidin-4-yl)urea] | < 20% | < 20% | – | – |
| O=C(NC1CCN(Cc2ccccn2)CC1)N[C@H]1CC[C@H](Nc2nccc(Nc3cc(C4CCOC4)[nH]n3)n2)CC1 (stereo partly drawn) [Compound 74, 1-(1-(pyridin-2-ylmethyl)piperidin-4-yl)-3-((1R,4R)-4-((4-((5-(tetrahydrofuran-3-yl)-1H-pyrazol-3-yl)amino)pyrimidin-2-yl)amino)cyclohexyl)urea] | 20 to 49% | < 20% | – | – |
| O=C(NC1CCN(Cc2ncccn2)CC1)N[C@H]1CC[C@H](Nc2nccc(Nc3cc(C4CCCC4)[nH]n3)n2)CC1 [Compound 75] | < 20% | 20 to 49% | – | – |
| O=C(NC1CCC(Nc2nccc(Nc3cc(C4CCCC4)[nH]n3)n2)CC1)NC1CC2(C1)CN(C1CC1)C2 [Compound 77, 1-((1R,4R)-4-((4-((5-cyclopentyl-1H-pyrazol-3-yl)amino)pyrimidin-2-yl)amino)cyclohexyl)-3-(2-cyclopropyl-2-azaspiro[3.3]heptan-6-yl)urea] | < 20% | 20 to 49% | – | – |
| O=C(NC1CCC(Nc2nccc(Nc3cc(C4CCCC4)[nH]n3)n2)CC1)NC1CCN(C2CC2)C1 [Compound 79, 1-((1R,4R)-4-((4-((5-cyclopentyl-1H-pyrazol-3-yl)amino)pyrimidin-2-yl)amino)cyclohexyl)-3-(1-cyclopropylpyrrolidin-3-yl)urea] | < 20% | 20 to 49% | – | – |
| [H]/N=C(\Nc1cccc(C(F)(F)F)c1)N[C@H]1CC[C@H](Nc2nccc(Nc3cc(C4CCCC4)[nH]n3)n2)CC1 [Compound 81, 1-((1R,4R)-4-((4-((5-cyclopentyl-1H-pyrazol-3-yl)amino)pyrimidin-2-yl)amino)cyclohexyl)-3-(3-(trifluoromethyl)phenyl)guanidine] | < 20% | 80 to 100% | – | – |
| C/N=C(\Nc1cccc(C(F)(F)F)c1)N[C@H]1CC[C@H](Nc2nccc(Nc3cc(C4CCCC4)[nH]n3)n2)CC1 [Compound 83] | < 20% | < 20% | – | – |
| FC(F)(F)C/N=C(\NC1CCOCC1)N[C@H]1CC[C@H](Nc2nccc(Nc3cc(C4CCCC4)[nH]n3)n2)CC1 [Compound 84] | < 20% | < 20% | – | – |
| N#Cc1cccc(NC(=N)N[C@H]2CC[C@H](Nc3nccc(Nc4cc(C5CCCC5)[nH]n4)n3)CC2)c1 [Compound 87, 1-(3-cyanophenyl)-3-((1R,4R)-4-((4-((5-cyclopentyl-1H-pyrazol-3-yl)amino)pyrimidin-2-yl)amino)cyclohexyl)guanidine] | – | – | ** (**: degradation 20-49%) | ** (**: degradation 20-49%) |
| O=C(Nc1cccc(C(F)(F)F)c1)N[C@H]1C[C@H](Nc2nccc(Nc3cc(C4CCCC4)[nH]n3)n2)C1 [Compound 96] | 20 to 49% | 20 to 49% | – | – |
| O=C(NC1Cc2ccncc2C1)N[C@H]1CC[C@H](Nc2nccc(Nc3cc(C4CCCC4)[nH]n3)n2)CC1 (stereo partly drawn) [Compound 101, 1-((1R,4R)-4-((4-((5-cyclopentyl-1H-pyrazol-3-yl)amino)pyrimidin-2-yl)amino)cyclohexyl)-3-(6,7-dihydro-5H-cyclopenta[c]pyridin-6-yl)urea] | < 20% | 80 to 100% | – | – |
| O=C(NC1CC(c2ccccc2)C1)N[C@H]1CC[C@H](Nc2nccc(Nc3cc(C4CCOC4)[nH]n3)n2)CC1 (stereo partly drawn) [Compound 102, 1-((1R,3R)-3-phenylcyclobutyl)-3-((1,4R)-4-((4-((5-(tetrahydrofuran-3-yl)1H-pyrazol-3-yl)amino)pyrimidine-2-yl)amino)cyclohexyl)urea] | < 20% | < 20% | – | – |
| Cc1cc(Nc2ccnc(N[C@H]3CC[C@H](NC(=O)NC4CCN(C(=O)C5CC5)CC4)CC3)n2)n[nH]1 [Compound 103, 1-(1-(cyclopropanecarbonyl)piperidin-4-yl)-3-((1R,4R)-4-((4-((5-methyl-1H-pyrazol-3-yl)amino)pyrimidin-2-yl)amino)cyclohexyl)urea] | < 20% | < 20% | – | – |
